The values that follow are results of earlier work, collected in patent US20100119622A1, “3H-BENZOOXAZOL-2-ONE MODULATORS OF D2 RECEPTOR AND/OR 5-HT1A RECEPTOR” (AUSPEX PHARMACEUTICALS, INC., priority 2008, published 2010).

For this data set the following is noted: healthy subjects.

Turning to `O=c1[nH]c2cccc(N3CCN(Cc4cccc(-c5ccccc5)c4)CC3)c2o1` [Bifeprunox, 7-[4-[(3-Phenylphenyl)methyl]piperazin-1-yl]-3H-benzooxazol-2-one], the elimination half-life was 14 h.
